Test results reported in US20210214681A1, “STEM CELL-DERIVED HUMAN MICROGLIAL CELLS, METHODS OF MAKING AND METHODS OF USE” (MEMORIAL SLOAN-KETTERING CANCER CENTER, priority 2018, published 2021).

Columns and labels:
rodent GSK3β homologs = details: cited from earlier work
hPSCs = assay: hPSC differentiation to mesoderm and KDR+CD235a+ primitive hematopoietic precursors; format: cell-based, human
Source text: Inhibition of Wnt signaling biases early mesoderm cells from the posterior primitive streak to generate KDR+CD235a+ primitive hematopoietic precursors (Sturgeon et al., Nat. Biotechnol. (2014); 32, 554-561). These precursors will go on to initiate primitive hematopoiesis in the yolk sac, giving rise to early EMPs. In this microglial differentiation scheme, the present example adapted Wnt inhibition to induce primitive hematopoiesis from hPSCs in a monolayer strategy. […] These cells were also KDR+ and CD235a+ (primitive hematopoietic precursors) by day 4 of differentiation by flow cytometry. […] Next, the present example developed the timeline of hemogenic endothelium and hematopoietic cell. Hemogenic endothelium developed after 1 day of replating the sorted KDR^+CD235A^+ primitive hematopoietic precursors. These cells gave rise to hematopoietic cells in suspension over 7 days in culture, gradually becoming more numerous in culture (FIG. 2). In order to validate hemogenic endothelium by VE-cadherin+staining, at 1 day post-sort, the cells were positive for VE-cadherin by immunofluorescence confirming that they were hemogenic endothelium, and the cells in suspension had characteristic small nuclei of hematopoietic cells (FIG. 3). […]

WNT pathway = details: at the level of the pathway activator Porcupine; read-out: IC50 WNT pathway inhibition; cited from earlier work
SW480 cells = details: cited from earlier work
[1] = test system: complement C3 release from hPSC-derived microglia cultures; assay: C3 release in Alzheimer's and H9 control co-cultures (ELISA); format: cell-based, human; details: all cultures, both Alzheimer's and control
Procedure: (§1) hPSC-derived microglia were used to model two neurodegenerative diseases, Alzheimer's and Amyotrophic Lateral Sclerosis (ALS). Mixed cultures of hPSC-derived microglia and Alzheimer's iPSC-derived neurons allowed to observe microglial activation in the disease culture, particularly with respect to increased complement C3 release. […] C3 was measured via ELISA. Additionally, GM-C SF diminished the C3 release in all cultures, both Alzheimer's and control (FIG. 20). […] Amyloid-β burden was decreased in microglial co-cultures with selectivity for amyloid-42 peptide (FIG. 21). […] Increased fluorescence of 42-488 inside microglial cells indicated increased uptake (FIG. 22). […] Switching fluorophores yielded similar result: amyloid-beta 42 was taken up more by microglial cells (FIG. 23). The fluorophores representing amyloid 42 and 40 were switched to make sure the effect of increased 42 brightness within cells was not due to a technical fluorophore brightness effect. Even with the switched fluorophores, in this experiment 42 was tagged to 555 and 40 to 488, there was more 42 brightness within microglial cells via immunofluorescence, corroborating the previous results that microglial cells phagocytosed amyloid-beta 42 selectively.
Culture supernatants were analyzed for C3 using the Millipore Luminex Multiplex Kit on the FlexMap 3D system. […]

pMacs = assay: Serum-free maturation of pMacs into macrophages; format: cell-based, human; details: pMacs in IMDM/F12/N2/B27 without serum
Source text: In the second strategy to generate microglia, the EMPs were matured into macrophages with 10% serum and M-CSF and IL-34. They developed the mature macrophage marker Cd11b by day 4 in culture, and the mature spindle morphology by day 11 (FIG. 10). All the cells that persisted in culture in serum and M-CSF and IL-34 after 11 days were CD45^+, indicating they were all hematopoietic. The majority also were positive for mature macrophage markers such as CX3CR1, CD14, Cd11b, and dectin by flow cytometry analysis (FIG. 11). The pMacs can also be matured into macrophages without serum, using IMDM/F12/N2/B27 in place of serum along with M-CSF and IL-34 (FIG. 12). […] Macrophage cells co-cultured with neurons yielded microglial cells with branching morphology and increased Iba1 immunofluorescence staining (FIG. 13). Iba1 was increased in microglial cells from macrophages, so the cells had transitioned into microglial identity through co-culture with neurons. Co-cultured pMac-derived microglia (EMP co-culture) and pMac-macrophage derived microglia (EMP-macrophage co-culture) share expression of key microglial genes with human fetal microglia (FIG. 14). Quantitative PCR of RNA from the two different strategies to derive microglia shared gene expression of a panel of key microglial genes with RNA from human fetal microglia (commercial source).

[2] = test system: hPSC-derived microglial cells; assay: Amyloid-beta phagocytosis by hPSC-derived microglial cells (FACS); format: cell-based, human; details: flow cytometry
Procedure: as §1

## Cc1c[nH]c(-c2cnc(NCCNc3ccc(C#N)cn3)nc2-c2ccc(Cl)cc2Cl)n1 [CHIR99021, 6-(2-(4-(2,4-dichlorophenyl)-5-(4-methyl-1H-imidazol-2-yl)pyrimidin-2-ylamino)ethylamino)nicotinonitrile]
Rodent GSK3β homologs
  IC50 values against rodent GSK3β homologs: nanomolar
hPSCs; 18 hr at 3 uM followed by Wnt inhibition via IWP2 at 3 uM, flow cytometry
  percentage of primitive hematopoietic precursors (KDR+CD235a+): highest percentage
hPSCs; eighteen hours of Wnt activation, immunofluorescence
  early mesoderm marked by Brachyury (T): gave rise to early mesoderm

## Cc1ccc2nc(NC(=O)CSc3nc4c(c(=O)n3-c3ccccc3)SCC4)sc2c1 [IWP-2, N-(6-methyl-1,3-benzothiazol-2-yl)-2-[(4-oxo-3-phenyl-6,7-dihydrothieno[3,2-d]pyrimidin-2-yl)thio]acetamide]
WNT pathway
  IC50: 0.027 µM

## Oc1nc(-c2ccc(C(F)(F)F)cc2)nc2c1CSCC2 [XAV939]
SW480 cells
  degradation of β-catenin: promotes the degradation of β-catenin
  protein levels of the axin-GSK3β complex: increases

## GM-CSF: granulocyte-macrophage colony-stimulating factor
[1]
  C3 release: diminished
pMacs
  cell yield / cell division and appearance: allowed division of the cells as well but the resulting cells appeared more granular and activated
[2]
  phagocytosis of amyloid-beta 40: increased
  phagocytosis of amyloid-beta 42: increased
